Assay results as given in patent US20210355109A1, “CRYSTAL FORM OF MALEATE OF TYROSINE KINASE INHIBITOR AND PREPARATION METHOD THEREFOR” (JIANGSU HENGRUI MEDICINE CO., LTD., priority 2018, published 2021).

Columns and labels:
Type in all cases: physicochemical
[1] = Solid properties / fluidity of crystal form
[2] = Influencing-factor stability of I and IV crystal forms, purity by HPLC (Thermo Ultimate3000DAD); conditions: for crystal stability (in words): conditions of light, high temperature, and high humidity
Source text: (§1) The stability of the I and IV crystal form of the compound represented by formula (I) was investigated. The purity of the crystal forms was detected by Thermo Ultimate3000DAD high-performance liquid chromatography system, and Waters symmetry C18, (250*4.6 mm, 5 μm) was used as the detection chromatographic column, mobile phase: sodium dihydrogen phosphate/ACN/H2O, detection wavelength: 261 nm.

[3] = Influencing-factor stability of I crystal form and amorphous form, purity by HPLC (Agilent1200 DAD); conditions: for stability after long-term storage (in words): high temperature, high humidity
Source text: as §1, with “I” for “I and IV”, “form” for “forms”, “Agilent1200 DAD high performance” for “Thermo Ultimate3000DAD high-performance”, “detection” for “detection chromatographic”

CCOc1cc2ncc(C#N)c(Nc3ccc(OCc4ccccn4)c(Cl)c3)c2cc1NC(=O)/C=C/[C@H]1CCCN1C.O=C(O)/C=C\C(=O)O [II crystal form]
fluidity [1]: poor

CCOc1cc2ncc(C#N)c(Nc3ccc(OCc4ccccn4)c(Cl)c3)c2cc1NC(=O)/C=C/[C@H]1CCCN1C.O=C(O)/C=C\C(=O)O [IV crystal form]
purity % ([2]; 40° C., day 0): 99.94% | purity % ([2]; 40° C., day 5): 99.92% | purity % ([2]; 40° C., day 10): 99.93% | purity % ([2]; 40° C., day 30): 99.85% | purity % ([2]; 60° C., day 0): 99.94% | purity % ([2]; 60° C., day 5): 99.83% | purity % ([2]; 60° C., day 10): 99.77% | purity % ([2]; 60° C., day 30): 99.50% | purity % ([2]; RH 75%, day 0): 99.94% | purity % ([2]; RH 75%, day 5): 99.93% | purity % ([2]; RH 75%, day 10): 99.94% | purity % ([2]; RH 75%, day 30): 99.94% | purity % ([2]; RH 90%, day 0): 99.94% | purity % ([2]; RH 90%, day 5): 99.93% | purity % ([2]; RH 90%, day 10): 99.94% | purity % ([2]; RH 90%, day 30): 99.93% | crystal stability (in words) [2]: good crystal stability | purity % ([2]; illumination, day 0): 99.94% | purity % ([2]; illumination, day 5): 99.92% | purity % ([2]; illumination, day 10): 99.92% | purity % ([2]; illumination, day 30): 99.85%

CCOc1cc2ncc(C#N)c(Nc3ccc(OCc4ccccn4)c(Cl)c3)c2cc1NC(=O)/C=C/[C@H]1CCCN1C.O=C(O)/C=C\C(=O)O [amorphous, reference compound]
purity % ([3]; 40° C., day 0): 99.31% | purity % ([3]; 40° C., day 5): 99.21% | purity % ([3]; 40° C., day 10): 99.13% | purity % ([3]; 40° C., day 30): 98.57% | purity % ([3]; RH 75%, day 0): 99.31% | purity % ([3]; RH 75%, day 5): 99.35% | purity % ([3]; RH 75%, day 10): 99.33% | purity % ([3]; RH 75%, day 30): 99.09% | purity % ([3]; RH 90%, day 0): 99.31% | purity % ([3]; RH 90%, day 5): 95.76% | purity % ([3]; RH 90%, day 10): 94.05% | purity % ([3]; RH 90%, day 30): 85.09% | purity % ([3]; illumination, day 0): 99.31% | purity % ([3]; illumination, day 5): 98.04% | purity % ([3]; illumination, day 10): 96.65% | purity % ([3]; illumination, day 30): 93.48% | stability after long-term storage (in words) ([3]; illumination, listed as amorphous form): poor stability

CCOc1cc2ncc(C#N)c(Nc3ccc(OCc4ccccn4)c(Cl)c3)c2cc1NC(=O)/C=C/[C@H]1CCCN1C.O=C(O)/C=C\C(=O)O [I crystal form]
purity % ([3]; 40° C., day 0): 99.56% | purity % ([3]; 40° C., day 5): 99.55% | purity % ([3]; 40° C., day 10): 99.51% | purity % ([3]; 40° C., day 30): 99.43% | purity % ([3]; RH 75%, day 0): 99.56% | purity % ([3]; RH 75%, day 5): 99.53% | purity % ([3]; RH 75%, day 10): 99.53% | purity % ([3]; RH 75%, day 30): 99.52% | purity % ([3]; RH 90%, day 0): 99.56% | purity % ([3]; RH 90%, day 5): 99.53% | purity % ([3]; RH 90%, day 10): 99.54% | purity % ([3]; RH 90%, day 30): 99.51% | purity % ([3]; illumination, day 0): 99.56% | purity % ([3]; illumination, day 5): 99.35% | purity % ([3]; illumination, day 10): 99.29% | purity % ([3]; illumination, day 30): 99.00% | stability after long-term storage (in words) ([3]; illumination): good physical and chemical stability | purity % ([2]; 40° C., day 0): 99.83% | purity % ([2]; 40° C., day 5): 99.78% | purity % ([2]; 40° C., day 10): 99.77% | purity % ([2]; 40° C., day 30): 99.69% | purity % ([2]; 60° C., day 0): 99.83% | purity % ([2]; 60° C., day 5): 99.64% | purity % ([2]; 60° C., day 10): 99.51% | purity % ([2]; 60° C., day 30): 99.24% | purity % ([2]; RH 75%, day 0): 99.83% | purity % ([2]; RH 75%, day 5): 99.81% | purity % ([2]; RH 75%, day 10): 99.81% | purity % ([2]; RH 75%, day 30): 99.68% | purity % ([2]; RH 90%, day 0): 99.83% | purity % ([2]; RH 90%, day 5): 99.81% | purity % ([2]; RH 90%, day 10): 99.82% | purity % ([2]; RH 90%, day 30): 99.82% | crystal stability (in words) [2]: good crystal stability | purity % ([2]; illumination, day 0): 99.83% | purity % ([2]; illumination, day 5): 99.68% | purity % ([2]; illumination, day 10): 99.59% | purity % ([2]; illumination, day 30): 99.29%
